From patent US20100092402A1, “TREATMENT OF RESPIRATORY DISEASE” (Mucokinetica Ltd., priority 2007, published 2010)

System: cystic fibrosis transmembrane regulator (CFTR)
Experiment: Short circuit current recording of HBE cells in Ussing chambers (forskolin ΔIsc)
Type: cell-based, human
Settings: for effect on forskolin ΔIsc compared to control: 90 min pre-treatment
Experimental: Differentiated HBE cells grown to confluence at an air-liquid interface for 15 to 29 days were used to study substances for ability to achieve long duration down regulation of the epithelial amiloride-sensitive sodium channel (ENaC).
Step 1: Treatment with substance. For each group of cells treated with a substance, 30 μl of 100 times final concentration of substance was added to the 3 ml basolateral culture medium, mixed and 150 μl of the resultant basolateral fluid was transferred to the apical surface for 5 min. For non-treatment control groups of basolateral fluid with no added substance was transferred to the apical surface. After 5 min. equilibration the excess apical fluid was then transferred back to the basolateral side of the culture well.
Step 2: Variable period of incubation with the substance. Dependent on the individual experiment the cells were returned to the 37° C. incubator for periods of 0 min. to 120 min.
Step 3: Period of substance washout with fresh culture medium. For experiments to study the duration of a substance response the HBE cells on Snapwell inserts were washed with fresh culture medium (no added substance) at 37° C. and placed in fresh 6-well plates containing 3 ml fresh culture medium (no added substance) on the basolateral side. […]
Step 5: Short circuit current (Isc) measurement. […] Silver/silver chloride electrodes (Costar Ltd., UK) were used to monitor Isc, which was recorded continuously throughout each experiment using AcqKnowledge III for MP100WSW data acquisition software (Biopac, Linton Instruments, UK). Transepithelial resistance (RT) was determined every minute by delivering a 5 mV pulse for 3 seconds and recording the change in ISS, over the 3 second period (ΔIsc). RT was calculated using the Ohm's law relationship RT=[V(5 mV)/ΔIsc].
At 37 min. […] The magnitude of the CFTR Isc response to forskolin was determined for each culture by measuring the difference between Isc immediately prior to addition of forskolin and at plateau at approximately 6 min. following addition of the agent (Forskolin ΔIsc)

In the case of `N=C(N)c1ccc2cc(OC(=O)c3ccc(N=C(N)N)cc3)ccc2c1` [6-amidino-2-napthyl 4-guanidinobenzoate], the “effect on forskolin ΔIsc compared to control” value (1 μM) is reported as “no significant effect”, the “forskolin response, treatment vs control” value (1 μM, pre-treatment time range 5 min to 60 min) is reported as “No significant difference” and the “effect on forskolin ΔIsc compared to control” value (dose range 30 nM to 3 μM) is reported as “without effect”.
